This note sets out measurements from ChEMBL document CHEMBL1201862, “PubChem BioAssay data set” (2004).

Calls of active or inactive are those of the source.

For assay [1], the target named is Troponin, cardiac muscle (Homo sapiens, UniProt P19429+P45379+P63316). Nature of the assay: Fluorescence-based biochemical high throughput dose response assay for activators of the calcium sensitivity of cardiac Regulated Thin Filaments (RTF). [Related pubchem assays (depositor defined):AID493008, AID493018, AID504382, AID504383]. Format: protein-complex assay.

Assay [2] deals with Peroxisome proliferator-activated receptor gamma/Nuclear receptor coactivator 1 (Homo sapiens, UniProt P37231). The experiment in a line: TR-FRET dose response biochemical High Throughput Screening assay for agonists of the steroid receptor coactivator 1 (SRC-1) recruitment by the peroxisome proliferator-activated receptor gamma (PPAR gamma): non-selective agonists. [Related pubchem assays (depositor defined):AID1300, AID1808, AID504735, AID631]. Format: protein assay.

For assay [3], the target named is Peroxisome proliferator-activated receptor gamma/Nuclear receptor coactivator 3 (Homo sapiens, UniProt P37231). Nature of the assay: TR-FRET dose response biochemical High Throughput Screening assay for agonists of the steroid receptor coactivator 3 (SRC-3) recruitment by the peroxisome proliferator-activated receptor gamma (PPAR gamma): non-selective agonists. [Related pubchem assays: 1301 (Confirmation screen.), 1048 (Primary screen.)]. Format: functional. In general terms: In TR-FRET formats the signal depends on donor and acceptor labels being close together.

Assay [4] concerns the target Peroxisome proliferator-activated receptor gamma/Nuclear receptor coactivator 2 (Homo sapiens, UniProt P37231). Nature of the assay: TR-FRET dose response biochemical High Throughput Screening assay for agonists of the steroid receptor coactivator 2 (SRC-2) recruitment by the peroxisome proliferator-activated receptor gamma (PPAR gamma): non-selective agonists. [Related pubchem assays: 1297, 1032 ]. Format: functional.

Assay [5] is described as follows: Luminescence Cell-Based Dose Response HTS to Identify Activators of 5'UTR Stem-Loop Driven Prion Protein mRNA Translation in H4-C Neuroglioblastoma Cells. [Related pubchem assays: 1829 (Project Summary), 1814 (Primary HTS)]. Format: functional.
The nature of assay [6]: inhibitors of SNCA 5'UTR-driven reporter translation, confirmation, H4 neuroglioma cells, luminescence (AID 1988). Format: functional, cell-based.
Assay [7] in a line: inhibitors of firefly luciferase expression or activity, dose response, H4 neuroglioma cells, luminescence (AID 1990). Format: functional, cell-based.
Assay [8] can be described thus: Luminescence Cell-Based Dose Response HTS to Identify Inhibitors of 5'UTR Stem-Loop Driven Prion Protein mRNA Translation in H4 Neuroglioblastoma Cells. [Related pubchem assays: 1827 (Project Summary), 1813 (Primary HTS)]. Format: functional.
Assay [9] in a line: Luminescence Cell-Based Dose Response HTS to Identify Activators of Luciferase Translation or Activity in H4-C Neuroglioblastoma Cells. [Related pubchem assays: 1829 (Project Summary), 1814 (Primary HTS)]. Format: functional.
In assay [10] the test system is BJ. The experiment in a line: cells. Format: functional, cell-based. As to conditions: Homo sapiens.
Assay [11] in a line: Luminescence Cell-Based Dose Response HTS to Identify Inhibitors of Luciferase Translation or Activity in H4-C Neuroglioblastoma Cells. [Related pubchem assays: 1813 (Primary HTS), 1827 (Project Summary)]. Format: functional.
The subject of assay [12] is BJ. Nature of the assay: cytotoxicity toward BJ-TERT fibroblasts, dose response, cell-based, RAS-independent, luminescence (AID 1933). The following applies: Homo sapiens. Format: functional.
Assay [13] deals with Transthyretin (Homo sapiens, UniProt P02766). The experiment in a line: Luminescence-based cell-based high throughput dose response assay to identify activators of Transthyretin (TTR) transcription. Format: functional.
Assay [14] can be described thus: cytotoxicity toward DRD oncogenic fibroblasts, dose response, cell-based, non-viral oncogenic, luminescence (AID 1934). Format: functional. As to conditions: Homo sapiens.
Assay [15] can be described thus: Luminescence Cell-Based Dose Confirmation HTS to Identify Inhibitors of 5'UTR Stem-Loop Driven Alpha-Synuclein mRNA Translation in H4 Neuroglioblastoma Cells. [Related pubchem assays: 1827 (Project Summary), 1813 (Primary HTS)]. Format: functional.
The subject of assay [16] is BJ. The experiment in a line: cytotoxicity toward BJ-TERT-LT-ST fibroblasts, dose response, cell-based, RAS-independent, luminescence (AID 1935).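 Further: BJ fibroblasts immortalized with TERT plus LT and ST oncogenes.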 The following applies: Homo sapiens. Format: functional.
Assay [17] in a line: Luminescence Cell-Based Dose HTS Response to Identify Inhibitors of 5'UTR Stem-Loop Driven Prion Protein mRNA Translation in H4-C Neuroglioblastoma Cells. [Related pubchem assays (depositor defined):AID1814, AID1827]. Format: functional.
Assay [18] in a line: cytotoxicity in HEK-293T cells, dose response, cytotoxicity control for TCR NF-kB inhibitor project, luminescence, T-cell screen hits (AID 489026).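 Further: cells exposed to compound about 14 hours before the viability readout.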 Format: functional, cell-based.
A short description of assay [19]: Luminescence Cell-Based Dose Retest to Confirm Activators of 5'UTR Stem-Loop Driven Alpha-Synuclein mRNA Translation in H4 Neuroglioblastoma Cells. [Related pubchem assays (depositor defined):AID1813, AID1829]. Format: functional.
Assay [20] deals with T1, Runt-related transcription factor 1/Core-binding factor subunit beta (Homo sapiens, UniProt Q01196+Q13951). The experiment in a line: inhibitors of RUNX1 Runt–CBFb-SMMHC binding, biochemical, TR-FRET (AID 1438). Format: protein assay.
The target in assay [21] is T1, Runt-related transcription factor 1/Core-binding factor subunit beta. The experiment in a line: inhibitors of RUNX1 Runt–CBFb-SMMHC binding, primary screen, biochemical, FRET, Cerulean-Runt, Venus-CBFb-SMMHC, uHTS (AID 1434).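 Further: partner is the CBFb-SMMHC leukemia fusion protein rather than wild-type CBFb.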 Format: protein assay.
In assay [22] the target is T2, CAAX prenyl protease 2 (Saccharomyces cerevisiae S288c, UniProt Q03530).
T2 sequence (Q03530 whole entry): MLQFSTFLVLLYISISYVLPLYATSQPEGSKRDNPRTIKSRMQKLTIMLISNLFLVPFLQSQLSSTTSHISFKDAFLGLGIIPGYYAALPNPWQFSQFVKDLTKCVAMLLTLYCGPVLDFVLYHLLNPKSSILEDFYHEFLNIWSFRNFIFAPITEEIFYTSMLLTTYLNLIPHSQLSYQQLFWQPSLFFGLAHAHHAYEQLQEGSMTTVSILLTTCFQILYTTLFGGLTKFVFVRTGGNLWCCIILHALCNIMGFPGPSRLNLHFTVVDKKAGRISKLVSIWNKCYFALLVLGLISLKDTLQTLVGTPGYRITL
Format: biochemical.

The nature of assay [23]: mammalian cell cytotoxicity, dose response, cytotoxicity control, plate reader, cherry-pick samples (AID 504397). Format: functional, cell-based.

For `O=[n+]1c2c(n([O-])c3ccccc31)CCC2`, in [1], the EC50 (usually the concentration at which the effect is half-maximal) was > 71.5 µM (inactive).

Consider `c1cc2c(cnc3cscc32)s1`, for which the EC50 in assay [2] is 8.78 µM (active); in assay [3] it was 69.3 µM (not active); in assay [4], 12 µM (not active).

As to `CCOC(=O)Nc1nc(-c2ccccc2)c(C(=O)c2ccc(Cl)cc2)s1`, the EC50 is 1.95 µM (inconclusive) in assay [5]; 0.108 µM (active) in assay [6]; 5.3 µM (active) in assay [7]; 3.25 µM (active) in assay [8]; 2.32 µM (inconclusive) in [9]; 15.6 µM (active) in assay [10]. In addition, the EC50 in [11] was 2.32 µM (active); in assay [12] it was 1.26 µM (inconclusive); in assay [13], > 167 µM (inactive); in [14], 1.28 µM (active); in [15], 1.76 µM (active); in assay [16], 1.45 µM (inconclusive). The EC50 was 1.95 µM (active) in assay [17] and 1.76 µM (inconclusive) in assay [19]. The IC50 (as a rule, the concentration needed to halve the response being measured) in assay [18] was > 80 µM (inactive).

`N=c1c(C(=O)NCc2ccc(F)cc2)cc2c(=O)n3ccccc3nc2n1Cc1ccco1`: the IC50 is 43.5 µM (active) in assay [20] and 3.78 µM (active) in assay [21].

On to `O=C(Nc1ccc(N2CCOCC2)c(Cl)c1)c1cc2ccccc2o1`, for which the AC50 (usually the concentration at which the activity in the assay is half-maximal) in assay [22] is 3.46 µM (active); in assay [23], 260 µM (active).
